Measured values from US20090105200A1, “Combination therapy” (priority 2007, published 2009).

Tests used:
primary CLL cells = assay: Cell death by 7AAD staining/flow cytometry and Wright-Giemsa stained cytospin slides; assay type: cell-based, human; details: 24 hours; for toxicity to CLL cells (photomicrographs): individual treatment, 3 nM
Mcl-1 = assay: Immunoblot analysis of Mcl-1; assay type: cell-based, human
Method: (§1) Methods. […] Immunoblot analysis (30 μg of protein per condition) was performed to detect cleavage of caspase-12 and PARP, levels of IκB c, phospho-IκBα, p65, p100/p52, as well as expression of NF-κB downstream anti-apoptotic proteins. Parallel studies were performed in two established CLL cell lines (JVM-3 and MEC-2, DSMZ).

[1] = tested on: bortezomib-resistant cells (U266/PS-R); assay: Apoptosis by Annexin V-FITC staining and flow cytometry; assay type: cell-based, human; details: 48 hours; 2 nM romidepsin with 5-15 nM bortezomib
[2] = Phase I/II dose escalation trial: toxicity and maximum tolerated dose; assay type: in vivo, human; details: dose level 2; with bortezomib 1.3 mg/m^2 and dexamethasone 20 mg; 28-day cycle
From the text: The trial design is illustrated in FIG. 10.
Specifically, during phase I (accelerated dose escalation phase), an accelerated titration design was used to ascertain the MTD of romidepsin. For example, if no dose limiting toxicities (DLTs) and <2 patients have moderate toxicities in cycle 1 (C1), the next patient is entered at one level higher. According to National Cancer Institute Common Toxicity Criteria (NCI-CTC) (version 3), DLT is defined as platelets<25×10^9/L; Grade 4 neutropenia despite G-CSF support; Grade 3 or 4 nausea, emesis, or diarrhea despite treatment; any other Grade 3 or 4 non-haematological toxicity; or >4 week suspension of treatment due to toxicity. The accelerated phase ends when one patient has a DLT during C1 or two patients have “moderate” toxicity during first treatment cycles. Patients were entered in cohorts of three according to the standard dose escalation design. A maximum of six patients were treated at any dose level. MTD is defined as the highest dose level at which the incidence of DLT is less than 33%. […]

[3] = tested on: dexamethasone-resistant (MM.1R) human myeloma cells; assay: Apoptosis by Annexin V staining and flow cytometry; assay type: cell-based; details: 24 hours; 1 nM romidepsin with 2 nM bortezomib
NF-κB = assay type: cell-based, human; details: romidepsin alone
Method: as §1

NF-κB2 precursor p100 = assay: Immunoblot analysis of p100/p52; assay type: cell-based, human; details: bortezomib with romidepsin
Method: as §1

[4] = bortezomib 3 nM with romidepsin 3-5 nM, five patients

SMILES	primary CLL samples with additive lethality (primary CLL cells; [4])	primary CLL samples with increased bortezomib lethality (primary CLL cells; [4])	toxicity to CLL cells (photomicrographs) (primary CLL cells)	bortezomib-induced Mcl-1 accumulation (Mcl-1; cells co-exposed to romidepsin)	effect on bortezomib lethality [1]	maximum tolerated dose of romidepsin [2]	effect on bortezomib lethality [3]	NF-κB activity (NF-κB)	processing of NF-κB2 precursor p100 into p52 (NF-κB2 precursor p100)	Mcl-1 level (Mcl-1; bortezomib alone)
C/C=C1\NC(=O)[C@H]2CSSCC/C=C/[C@H](CC(=O)N[C@H](C(C)C)C(=O)N2)OC(=O)[C@H](C(C)C)NC1=O [romidepsin, (1S,4S,10S,16E,21R)-7-[(2Z)-ethylidene]-4,21-diisopropyl-2-oxa-12,13-dithia-5,8,20,23-tetraazabicyclo[8.7.6]tricos-16-ene-3,6,9,19,22-pentanone]	additive lethality in one sample	dramatically increased bortezomib lethality in four out of five primary CLL samples	relatively non-toxic	diminished	potentiates bortezomib lethality	10 mg/m^2	potentiate bortezomib lethality	activated NF-κB activity	–	–
CC(C)C[C@H](NC(=O)[C@H](Cc1ccccc1)NC(=O)c1cnccn1)B(O)O [bortezomib, [(1R)-3-methyl-1-[[(2S)-1-oxo-3-phenyl-2-[(pyrazinylcarbonyl)amino]propyl]amino]butyl]boronic acid]	–	–	relatively non-toxic	–	–	–	–	–	blocked romidepsin-mediated processing of NF-κB2 precursor p100 into its active p52 form	induced accumulation of Mcl-1
